A melting point compilation (Tetko et al.; mined from patent text by program, amines drawn as free bases though some values may be those of a salt)
Residues, ends and D or L forms follow the SMILES beside them. *: point of attachment. Cbz = O=C(OCc1ccccc1)*; Bn = c1ccc(C*)cc1

SMILES | melting point
O=C(Nc1cccc(CN2C(=O)[C@H]3CCC[C@H]3N(C(=O)CN3C(=O)c4ccccc4C3=O)c3ccccc32)c1)OCc1ccccc1 (relative stereo) | 224 to 225 °C
N#CC(C#N)=C1Sc2nc3ccc(C#N)cc3nc2S1 | 278 to 281 °C
CCNC(=O)C(COCc1ccccc1)NC(=O)C(Cc1ccc(OCc2ccccc2)cc1)NC(=O)C(Cc1c[nH]cn1)NC(=O)OCc1ccccc1 (stereo not drawn) (Cbz-His-Tyr(Bn)-Ser(Bn)-NHEt; configuration not given here) | 182 to 188 °C
CC(C=CC=C(C)CO)=CC=CC=C(C)C1OCC(C)(C)CO1 | 136 to 137 °C
O=C(O)CCC(=O)c1ccc(-n2cncn2)cc1 | 234 to 235 °C
Cc1cc(SC2=C(O)CC(C3CCCC3)(C3CCCC3)OC2=O)c(C(C)(C)C)cc1NS(=O)(=O)c1ccc(C(F)(F)F)cn1 | 127 to 129 °C
COc1c2ccccc2c(-c2c(-c3c4ccccc4c(OC)c4ccccc34)c2=O)c2ccccc12 | 265 to 270 °C
C(=C\c1cccs1)/c1nc(COc2ccc(CCCn3ccnc3)cc2)co1 | 131 to 132 °C
O=S(=O)(CCl)c1ccc(O)c(Cl)c1 | 108 °C
c1ccc(NC2(c3ccccc3)N=C(c3ccccc3)N=C2c2ccccc2)cc1 (stereo unspecified) | 157 °C
NC(=O)c1cn(CC2CC2)c2ccccc12 | 170 °C
CCCCCCCCCCCCCCOc1ccc(OC(=O)N(C)Cc2ccccn2)cc1 | 67 to 68 °C
CCCN1N=C2C(=Cc3ccccc3)CSCC2C1c1ccccc1 (stereo unspecified) | 111 to 120 °C
CCC(CC)N(O)C(=O)NCCCC(C)CNC(=O)N(O)C(CC)CC (stereo unspecified) | 124 to 125 °C
N=C(N)Nc1nc(-c2nc(N)n[nH]2)cs1 | 173 to 175 °C
CC(=O)OC1C(Oc2cccc(O)c2C(=O)CCc2ccc3occc3c2)OC(CO)C(O)C1O (stereo unspecified) | 152 to 156 °C
O=Cc1ccc(-c2ccc(C(=O)O)cc2)c([N+](=O)[O-])c1 | 227 to 235 °C

Results, then the compound that gave them:

melting point | SMILES
222 to 224 °C | O=c1c(Cc2ccncc2)c(-c2ccccc2)[nH]c2ccccc12
72 to 76 °C | CCCSc1sc(C(=O)N2CCCC2)c2c1-c1oncc1C(C)(C)C2
172 °C | CC(C)CCC(=O)CC1c2ccccc2C(=O)N1c1ccc2ccc(Cl)nc2n1 (stereo unspecified)
89 to 91 °C | COCCC(=O)c1cc(C(=O)OC)c(N)cc1C(F)(F)F
95.9 °C | Nc1cc(F)c(Sc2ccc(C(F)(F)F)cc2Cl)cc1F
252 °C | CCOc1ccc2c(c1)n(C1CCCCC1)c(=O)n2S(=O)(=O)c1ccc(C(=O)NC(C)(C)C)cc1OC
105 °C | Cc1ccc(S(=O)(=O)Oc2cc(C(C)(C)C)c(SC3=C(O)CC(CCc4ccc(O)cc4)(C4CCCCC4)OC3=O)cc2C)cc1 (stereo unspecified)
122 to 124 °C | CCOc1ncc(Br)cc1C(=O)O
132 to 135 °C | CCc1cc2c(Sc3nnc(C)s3)ncnc2s1
196 to 197 °C | CC(C)(C)OC(=O)NCc1cc(C(C)(C)C)cc(I)c1O
219 to 221 °C | Cc1cc(C(=O)C2CCc3nc[nH]c3C2)c2ccccn12 (stereo unspecified)
97 to 101 °C | CC(C)OC(=O)C1CCCN1S(=O)(=O)c1ccc(N2CCC(=O)CC2)cc1 (stereo unspecified)
164 to 166 °C | CCC1(CC)c2cc(CBr)c(CBr)cc2C(CC)(CC)N1Cc1ccccc1
281 to 283 °C | COc1ccc2ncc([N+](=O)[O-])c(Cl)c2c1
158 to 160 °C | CCC12CCC3c4ccc(OC)cc4CCC3C1C=CC2=O (stereo unspecified)
216 to 218 °C | CNC(=O)c1ccccc1Nc1nc(Nc2ccc3c(c2)COC[C@@H]2CCCN32)ncc1Cl
225 to 226 °C | O=C(Nc1cnc2sc(CO)nc2c1)c1cc2cc(F)ccc2n1Cc1cccc(F)c1
127 to 133 °C | COc1c(NC(=O)c2ccc(C)c(-n3cc(C(=O)NCc4cccnc4)cn3)c2)cc(C(C)(C)C)cc1NS(C)(=O)=O
119 to 120 °C | COC[C@@H](C)n1cc(Cl)nc(N2CCc3cc(Br)cc(Br)c32)c1=O
